Laboratory results reported in ChEMBL document CHEMBL1122816, “Synthesis and activity of 5-(aminomethylene)-1,3-cyclohexanediones: enolic analogues of gamma-aminobutyric acid” (J Med Chem, 1985).

Experiments:
[1] = target: GABA-A receptor; anion channel; assay: Displacement of [3H]GABA from Gamma-aminobutyric acid A (GABA-A) receptor in rat brain membranes; assay type: cell membranes
[2] = species: Rattus norvegicus; assay: The inhibitory concentration of compound against sodium dependent [3H]GABA synaptosomal uptake in rats; assay type: functional
[3] = target: GABA B receptor (Rattus norvegicus, UniProt O88871+Q9Z0U4); assay: Displacement of [3H]baclofen from Gamma-aminobutyric acid type B receptor in rat brain membranes; assay type: cell membranes
Sequence of GABA B receptor (Q9Z0U4 whole entry): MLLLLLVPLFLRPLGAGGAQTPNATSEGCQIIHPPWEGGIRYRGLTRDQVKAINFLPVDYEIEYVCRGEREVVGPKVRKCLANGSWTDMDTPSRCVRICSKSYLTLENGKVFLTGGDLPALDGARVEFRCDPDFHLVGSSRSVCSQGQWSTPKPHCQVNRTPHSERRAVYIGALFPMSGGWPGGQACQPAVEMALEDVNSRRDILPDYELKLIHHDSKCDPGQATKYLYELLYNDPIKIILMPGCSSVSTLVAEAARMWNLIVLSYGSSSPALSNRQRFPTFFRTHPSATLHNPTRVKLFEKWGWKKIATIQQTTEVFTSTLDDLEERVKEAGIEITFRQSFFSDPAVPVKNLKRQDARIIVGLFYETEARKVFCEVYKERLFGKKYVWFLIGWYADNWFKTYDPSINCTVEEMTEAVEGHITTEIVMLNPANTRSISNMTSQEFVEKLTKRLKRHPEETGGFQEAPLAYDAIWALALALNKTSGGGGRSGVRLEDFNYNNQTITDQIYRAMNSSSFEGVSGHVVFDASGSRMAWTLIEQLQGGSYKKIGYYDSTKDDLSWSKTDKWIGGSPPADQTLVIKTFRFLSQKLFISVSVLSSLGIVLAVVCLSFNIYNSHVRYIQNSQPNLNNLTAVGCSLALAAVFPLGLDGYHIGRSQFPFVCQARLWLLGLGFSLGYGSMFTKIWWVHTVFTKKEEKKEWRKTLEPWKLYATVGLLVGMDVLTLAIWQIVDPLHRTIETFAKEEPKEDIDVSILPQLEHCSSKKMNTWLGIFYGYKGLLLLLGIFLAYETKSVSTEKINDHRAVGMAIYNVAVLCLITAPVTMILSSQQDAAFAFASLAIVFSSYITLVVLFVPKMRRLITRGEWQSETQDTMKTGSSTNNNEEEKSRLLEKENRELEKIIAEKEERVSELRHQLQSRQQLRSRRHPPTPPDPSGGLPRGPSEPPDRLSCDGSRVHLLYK
Sequence of GABA B receptor (O88871 whole entry): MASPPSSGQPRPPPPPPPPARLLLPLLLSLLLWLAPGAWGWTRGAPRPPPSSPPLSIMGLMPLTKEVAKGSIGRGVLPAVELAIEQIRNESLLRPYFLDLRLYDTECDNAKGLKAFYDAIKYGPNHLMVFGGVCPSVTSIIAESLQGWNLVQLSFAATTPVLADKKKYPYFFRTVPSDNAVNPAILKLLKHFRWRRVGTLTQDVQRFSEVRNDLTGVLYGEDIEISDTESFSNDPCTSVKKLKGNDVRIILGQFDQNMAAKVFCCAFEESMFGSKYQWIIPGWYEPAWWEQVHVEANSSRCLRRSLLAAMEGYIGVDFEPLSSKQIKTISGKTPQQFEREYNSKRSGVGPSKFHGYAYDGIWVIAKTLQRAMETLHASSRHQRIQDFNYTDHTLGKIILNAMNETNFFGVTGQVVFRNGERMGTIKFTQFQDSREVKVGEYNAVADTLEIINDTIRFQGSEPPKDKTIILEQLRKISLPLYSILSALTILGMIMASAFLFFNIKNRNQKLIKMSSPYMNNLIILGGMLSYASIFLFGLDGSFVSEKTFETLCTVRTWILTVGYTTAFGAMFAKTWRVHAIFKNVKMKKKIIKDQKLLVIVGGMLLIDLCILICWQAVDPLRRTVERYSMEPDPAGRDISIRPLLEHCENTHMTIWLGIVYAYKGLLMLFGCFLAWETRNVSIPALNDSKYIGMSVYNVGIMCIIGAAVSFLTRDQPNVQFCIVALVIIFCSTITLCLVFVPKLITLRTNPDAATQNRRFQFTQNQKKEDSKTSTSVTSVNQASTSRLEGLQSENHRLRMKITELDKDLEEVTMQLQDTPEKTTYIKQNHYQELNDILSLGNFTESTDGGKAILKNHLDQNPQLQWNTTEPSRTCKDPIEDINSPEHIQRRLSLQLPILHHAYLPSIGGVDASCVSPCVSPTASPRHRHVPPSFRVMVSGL

## NCC1CC(=O)C=C(O)C1 (stereo not drawn)
[1]
  IC50: 65 µM
[2]
  IC50: > 100 µM
[3]
  IC50: > 100 µM

## O=C(O)C1CCCNC1 (stereo not drawn) [NIPECOTIC ACID]
[1]
  IC50: > 100 µM
[2]
  IC50: 5.6 µM
[3]
  IC50: > 100 µM

## NCC(CC(=O)O)c1ccc(Cl)cc1 (stereo not drawn) [BACLOFEN]
[1]
  IC50: 0.03 µM
[2]
  IC50: 1.8 µM
